Measured values from patent publication US20070276025A1, “Indirubin-Type Compounds, Compositions, and Methods for Their Use” (priority 2003, published 2007).
Read-outs that look alike come from different tables or passages of the source.

Key:
GSK-3α/β = GSK-3α/β kinase assay (GS-1 peptide, 15 μM ATP); format: biochemical, porcine
CDK1/cyclin B = CDK1/cyclin B kinase assay (histone H1, 15 μM ATP); format: biochemical, starfish (Marthasterias glacialis)
CDK5/p25 = CDK5/p25 (Homo sapiens, UniProt Q00535); test: CDK5/p25 kinase assay (histone H1, 15 μM ATP); format: biochemical, mammalian; details: read-out: IC50 CDK5/p25
Chain of CDK5/p25 (Q00535 whole entry, species assumed): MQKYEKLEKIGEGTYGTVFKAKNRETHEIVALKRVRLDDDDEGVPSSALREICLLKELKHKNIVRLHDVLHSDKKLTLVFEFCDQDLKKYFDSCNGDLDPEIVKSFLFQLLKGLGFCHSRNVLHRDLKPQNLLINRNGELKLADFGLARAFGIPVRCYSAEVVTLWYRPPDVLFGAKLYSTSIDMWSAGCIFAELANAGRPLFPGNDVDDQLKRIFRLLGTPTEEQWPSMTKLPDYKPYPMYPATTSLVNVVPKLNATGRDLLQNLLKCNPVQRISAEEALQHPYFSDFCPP
Chain of CDK5/p25 (Q15078 99-307 partner limits assumed, species assumed): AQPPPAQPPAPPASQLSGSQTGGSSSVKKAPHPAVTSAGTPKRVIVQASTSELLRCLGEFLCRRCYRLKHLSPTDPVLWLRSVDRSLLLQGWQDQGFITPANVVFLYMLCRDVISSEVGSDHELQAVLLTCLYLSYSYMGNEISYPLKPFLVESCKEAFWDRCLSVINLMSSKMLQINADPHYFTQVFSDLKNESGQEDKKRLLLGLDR

[1] = tested on: GSK-3α (Tyr276) / GSK-3β (Tyr216); test: Tyrosine phosphorylation of GSK-3 in SH-SY5Y cells (Western blot); format: cell-based, human; details: 1 μM, 12 hr
Description: GSK-3α and GSK-3β activity is enhanced by the phosphorylation of a specific tyrosine residue (Tyr276 and Tyr216, respectively) (Hughes et al. (1993) EMBO J. 12: 803-808; Dajani et al. (2003) EMBO J. 22: 494-501). The tyrosine kinase responsible for this phosphorylation in mammals is unknown, but there is some evidence that it indirectly depends on GSK-3 activity (Bhat et al. (2000) Proc. Natl. Acad. Sci. U.S.A. 97: 11074-11079; Shaw et al. (1997) FEBS Lett. 416: 307-311). […] SH-SY5Y cells were exposed to IO, MeIO, BIO and MeBIO for 12 hr and the phosphorylation of Tyr276 (GSK-3α) and Tyr216 (GSK-3β) was estimated by Western blotting with phospho-specific antibodies. […] This was accompanied by an increased level in total GSK-3β, total β-catenin, and dephospho-&catenin.

[2] = tested on: 5L (AhR +/+) hepatoma cells; test: Cell proliferation by direct counting, 5L cells; format: cell-based, mouse; details: 20 μM, 24 and 48 hr
Protocol: (§1) The protocol followed was similar to those previously described in Weiss C, Kolluri S K, Kiefer F and Göttlicher M. (1996). Exp. Cell Res., 226, 154-163, and Kolluri S K, Weiss C, Koff A and Gbttlicher M. (1999). Genes & Dev., 13, 1742-1753. The mouse 5L hepatoma cell line (AhR +/+) and BP8 (an AhR −/− subclone) were kindly provided by Dr. M. Gottlicher (Forschungszentrun Karlsruhe, Institute of Genetics, 76021 Karlsruhe, Germany). Cells were cultured in Dulbecco's modified Eagle medium (DMEM) (Biowhittaker) supplemented with 2 mM L-glutamine (Eurobio), 10% fetal calf serum (FCS), and gentamycin (Gibco BRL) at 37° C. in an atmosphere of 7% CO2. […] Control experiments were carried out using appropriate dilutions of DMSO.
(§2) The effects of IO and MeOO (20 μM) on the proliferation rate of 5L and BP8 cell lines was determined by counting directly the number of live cells after 24 and 48 hr of exposure to the indirubins (FIG. 17).

[3] = tested on: BP8 (AhR −/−) hepatoma cells; test: Cell proliferation by direct counting, BP8 cells; format: cell-based, mouse; details: 20 μM, 24 and 48 hr
Protocol: as §1, §2

[4] = tested on: 5L (AhR +/+) hepatoma cells; test: Cell viability MTT assay, 5L cells; format: cell-based, mouse; details: range of concentrations, 24 and 48 hr
[5] = tested on: BP8 (AhR −/−) hepatoma cells; test: Cell viability MTT assay, BP8 cells; format: cell-based, mouse; details: range of concentrations, 24 and 48 hr
[6] = tested on: 5L (AhR +/+) hepatoma cells; test: FACS cell cycle analysis, 5L cells; format: cell-based, mouse; details: 10 μM indirubins or 100 nM TCDD, 24 hr
[7] = tested on: BP8 (AhR −/−) hepatoma cells; test: FACS cell cycle analysis, BP8 cells; format: cell-based, mouse; details: 10 μM indirubins or 100 nM TCDD, 24 hr
Protocol: Flow cytometry analysis (Coulter EPIX XL2, Beckman, Calif., USA) of cellular DNA content was performed on ethanol-fixed cell suspensions after ribonuclease A III treatment (Sigma) and propidium iodide (Sigma) staining, as previously described (French et al. (1985) Cytometry 6: 47-53). Percentages of cells in G0/G1, S and G2/M phases of cell cycle were then calculated on the basis of DNA distribution histograms provided by the software manufacturer.
Both 5L and BP8 cell lines were treated with 10 μM IO, MeIO, BIO, MeBIO or 100 nM TCDD for 24 hr.

[8] = tested on: p27^KIP1 in 5L (AhR +/+) cells; test: p27KIP1 expression by Western blotting, 5L cells; format: cell-based, mouse; details: 10 μM indirubins or 0.1 μM TCDD, 24 hr
AhR [9] = biological target: AhR (Homo sapiens, UniProt P35869)
Chain of AhR (Homo sapiens, UniProt P35869) (P35869 11-848): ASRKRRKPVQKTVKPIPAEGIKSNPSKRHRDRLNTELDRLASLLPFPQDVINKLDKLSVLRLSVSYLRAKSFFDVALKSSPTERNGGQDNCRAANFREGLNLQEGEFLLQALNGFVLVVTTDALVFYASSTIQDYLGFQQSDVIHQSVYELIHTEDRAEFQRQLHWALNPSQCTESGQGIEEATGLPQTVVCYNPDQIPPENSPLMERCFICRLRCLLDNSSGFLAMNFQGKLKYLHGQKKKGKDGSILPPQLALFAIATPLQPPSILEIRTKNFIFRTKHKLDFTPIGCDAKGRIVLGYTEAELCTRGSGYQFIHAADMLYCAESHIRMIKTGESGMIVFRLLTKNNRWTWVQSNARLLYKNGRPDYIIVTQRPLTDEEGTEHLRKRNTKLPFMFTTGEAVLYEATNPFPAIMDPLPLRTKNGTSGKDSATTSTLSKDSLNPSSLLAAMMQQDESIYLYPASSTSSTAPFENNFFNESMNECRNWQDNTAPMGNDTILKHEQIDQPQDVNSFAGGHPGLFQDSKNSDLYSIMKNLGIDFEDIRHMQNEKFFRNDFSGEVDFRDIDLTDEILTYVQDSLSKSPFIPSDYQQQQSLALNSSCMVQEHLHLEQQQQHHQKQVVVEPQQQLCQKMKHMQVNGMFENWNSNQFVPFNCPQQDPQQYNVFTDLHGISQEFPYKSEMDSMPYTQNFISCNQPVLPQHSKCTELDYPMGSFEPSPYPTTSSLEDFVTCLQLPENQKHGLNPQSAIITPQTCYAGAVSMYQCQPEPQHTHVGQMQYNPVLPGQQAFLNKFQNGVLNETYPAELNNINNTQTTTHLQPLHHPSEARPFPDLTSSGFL
Chain of AhR (Homo sapiens, UniProt P35869) (P27540 whole entry partner): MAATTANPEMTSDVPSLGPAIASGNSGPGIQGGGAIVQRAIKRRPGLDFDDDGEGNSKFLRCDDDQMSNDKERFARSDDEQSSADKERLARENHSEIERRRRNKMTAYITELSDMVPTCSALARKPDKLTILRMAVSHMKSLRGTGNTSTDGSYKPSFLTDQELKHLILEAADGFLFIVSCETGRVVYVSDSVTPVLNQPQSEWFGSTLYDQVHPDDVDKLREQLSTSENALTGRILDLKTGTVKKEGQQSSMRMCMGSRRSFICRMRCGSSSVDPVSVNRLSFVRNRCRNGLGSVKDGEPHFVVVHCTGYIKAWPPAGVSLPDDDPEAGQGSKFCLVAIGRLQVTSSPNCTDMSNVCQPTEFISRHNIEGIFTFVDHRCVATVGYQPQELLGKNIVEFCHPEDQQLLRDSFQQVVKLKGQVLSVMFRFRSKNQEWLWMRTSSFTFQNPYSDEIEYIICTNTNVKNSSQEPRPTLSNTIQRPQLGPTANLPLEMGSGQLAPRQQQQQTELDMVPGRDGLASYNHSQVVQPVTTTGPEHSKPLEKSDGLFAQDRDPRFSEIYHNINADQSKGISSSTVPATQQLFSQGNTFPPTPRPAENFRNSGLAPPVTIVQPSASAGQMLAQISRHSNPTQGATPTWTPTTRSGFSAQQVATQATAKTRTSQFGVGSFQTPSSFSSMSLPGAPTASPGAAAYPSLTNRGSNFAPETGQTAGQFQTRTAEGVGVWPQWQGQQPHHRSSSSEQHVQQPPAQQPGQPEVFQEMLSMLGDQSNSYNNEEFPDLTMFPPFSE

AhR [10] = biological target: T1, AhR (Mus musculus, UniProt P30561); details: read-out: EC50 AhR (hepatoma cell line); Table 4; EGFP at 24 hours
T1 sequence (P30561 1-848): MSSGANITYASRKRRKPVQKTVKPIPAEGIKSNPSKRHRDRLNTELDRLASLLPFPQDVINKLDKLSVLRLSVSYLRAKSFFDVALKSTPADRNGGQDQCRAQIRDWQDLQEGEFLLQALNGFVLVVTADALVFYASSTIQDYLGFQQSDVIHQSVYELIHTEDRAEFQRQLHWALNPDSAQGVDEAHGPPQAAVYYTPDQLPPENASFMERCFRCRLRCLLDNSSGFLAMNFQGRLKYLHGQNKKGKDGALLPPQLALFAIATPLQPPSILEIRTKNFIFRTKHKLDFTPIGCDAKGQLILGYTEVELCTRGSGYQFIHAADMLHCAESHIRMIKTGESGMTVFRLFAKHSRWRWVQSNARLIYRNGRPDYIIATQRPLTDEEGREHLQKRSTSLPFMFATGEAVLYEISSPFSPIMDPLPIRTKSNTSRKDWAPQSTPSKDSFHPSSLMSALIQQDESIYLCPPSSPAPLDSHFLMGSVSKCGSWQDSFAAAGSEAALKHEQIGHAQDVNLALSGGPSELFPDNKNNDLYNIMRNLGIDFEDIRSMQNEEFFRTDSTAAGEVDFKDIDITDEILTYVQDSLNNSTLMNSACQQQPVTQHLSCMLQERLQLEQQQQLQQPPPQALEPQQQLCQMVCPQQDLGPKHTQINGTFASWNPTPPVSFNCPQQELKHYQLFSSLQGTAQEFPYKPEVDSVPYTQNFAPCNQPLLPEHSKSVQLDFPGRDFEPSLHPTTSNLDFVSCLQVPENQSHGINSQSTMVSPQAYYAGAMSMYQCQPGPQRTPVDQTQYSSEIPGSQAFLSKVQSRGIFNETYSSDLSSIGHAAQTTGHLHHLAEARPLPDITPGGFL

## CN1C(=O)C(=C2Nc3ccccc3C2=NO)c2ccccc21 [13d, 1-Methylindirubin-3′-oxime]
GSK-3α/β; Table 1, read-out: IC50 GSK-3 α/β
  IC50: > 100 µM
GSK-3α/β; Table 4, read-out: IC50 GSK-3
  IC50: > 100 µM
GSK-3α/β; Table 5, read-out: IC50 GSK-3α/β
  IC50: > 100 µM
CDK1/cyclin B; Table 1, read-out: IC50 CDK1/cyclin B
  IC50: 73 µM
CDK1/cyclin B; Table 4, read-out: IC50 CDK1/cycin B
  IC50: 73 µM
CDK1/cyclin B; Table 5, read-out: IC50 CDK1/cyclin B
  IC50: 73 µM
CDK5/p25; Table 1
  IC50: > 100 µM
CDK5/p25; Table 5
  IC50: > 100 µM
[1]
  level of tyrosine phosphorylation of both GSK-3 isoforms: None of these changes were observed
[2]
  proliferation rate of 5L cells: reduced the rate of proliferation only in 5L cells
[3]
  proliferation rate of BP8 cells: did not effect the proliferation
[4]
  survival of 5L cells (MTT): apparently not affected
[5]
  survival of BP8 cells (MTT): apparently not affected
[6]
  accumulation of 5L cells in G1 phase: very striking accumulation
[7]
  accumulation of BP8 cells in G1 phase: but not of AhR −/− cells (BP8)
[8]
  p27^KIP1 expression in 5L cells: very effective p27^KIP1 inducers
AhR [9]
  EC50: 0.008 µM
AhR [10]
  EC50: 0.129 µM
